Like-named read-outs stand apart in the source and are kept apart here.
Assays:
[1] = test system: MRC-5 (human lung fibroblast cell line); assay: Cytotoxicity MTT assay, MRC-5; format: cell-based
Experimental: (§1) This test is based on the reduction of 3-(4,5-dimethyl-2-thiazolyl)-2,5-diphenyl-2-tetrazole bromide by viable cells, with formation of violet insoluble formazan crystals. Five cell lines were used in order to evaluate the cytotoxic effect of the compounds as a whole.
(§2) The cytotoxicity of compounds 4, 16, 28 and copper oxychloride was determined by MTT assay. The cell lines used were HaCaT (human keratinocyte cell line—CLS 300493), Huh-7.5 (human hepatoma cell line—ATCC® PTA-8561), MRC-5 (human lung fibroblast cell line—ATCC CCL-171), VERO (monkey kidney epithelial cell line—ATCC® CCL81) and ACHN (human renal adenocarcinoma cell line—ATCC® CRL1611). The cells were cultured in appropriate medium recommended by the American Type Culture Collection.
(§3) The assay was performed with the concentration of 10^4 cells for both cell lines, distributed in 96-well plates and incubated at 37 °C in a 5% CO2 controlled atmosphere oven for 24 h. After the incubation period, the cells were treated with the compounds with a range of 1.56–200 μmol L^−1 and incubated for 24 h. The supernatant was removed, then 100 μL of 3-(4,5-dimethyl-2-thiazolyl)-2,5-diphenyl-2H-tetrazolium (MTT) salt at 1 mg mL^−1 diluted in DMEM medium (Gibco Life Technologies, Gaithersburg, MD, USA) was added and incubated for 30 min. Subsequently, the MTT was removed, then 100 μL of DMSO under agitation for 5 min at 60 rpm was added. The plates were read at 570 nm in a FLUOstar Omega/BMG LABTECH plate reader, Offenburg, BW, DE. We carried out the experiments in triplicate and three independent events for statistical analysis (GraphPad Software, San Diego, CA, USA). The MTT assay is based on the tetrazolium salt (yellow-colored) reduction to formazan (purple-colored) by metabolically active cells.

[2] = test system: ACHN (human renal adenocarcinoma cell line); assay: Cytotoxicity MTT assay, ACHN; format: cell-based
Experimental: as §1, §2, §3

[3] = test system: X. citri subsp. citri strain 306 (IBSBF 1594); assay: MBC, REMA plates replicated to Petri dishes; format: cell-based, Xanthomonas citri subsp. citri; settings: Xanthomonas citri; Petri dishes from REMA plates, 29 °C, 24 to 48 h; read-out: MBC
Experimental: The minimal bactericidal concentration (MBC) was determined by observing the bacterial growth in Petri dishes transferred from the REMA plates.
(§4) The antibacterial activity of alkyl dihydroxybenzoates and the determination of minimum inhibition concentration (MIC) were performed by the fluorimetric method Resazurin Microtiter Assay (REMA) with some modifications. An overnight culture of X. citri subsp. citri strain 306 (IBSBF 1594) was grown in 20 mL in Nitrogen Yeast Glycerol (NYG) at 29 °C in constant agitation of 180–200 rpm. After 12 h, the Xcc inoculum was dispersed in NYG medium and distributed into a 96 well microtiter plate to a final volume of 100 μL per well (10^5 CFU per well). Stock solutions of tested compounds at 10 mg mL^−1 were prepared in dimethyl sulfoxide (DMSO) and dispersed in NYG medium to obtain 1% DMSO and the final compound concentration range of 0.78–100 μg mL^−1. The negative control was constituted of 100 μL culture medium. In addition, the copper oxychloride was tested as a comparison to alkyl dihydroxybenzoates and kanamycin (20 μg mL^−1), which was used as a control antibiotic. The plate was subsequently incubated at 29 °C for 12 h, and 15 μg mL^−1 freshly prepared resazurin solution in water was added to each well, and the plate was incubated for 2 h. The fluorescence was determined on a Synergy H1 (BioTek, Winooski, VT, USA) microplate reader using the excitation and emission filters at wavelengths of 530 and 590 nm respectively. After the REMA assay, the minimum bactericidal concentration (CBM) assay was performed using a 96-pin stainless steel plate replicator, accurately transferring the wells from the REMA plate to Petri dishes Petri dishes were incubated in oven B.O.D. at 29 °C for 24 to 48 h. The experiments were performed in triplicate.

[4] = test system: X. citri subsp. citri strain 306 (IBSBF 1594); assay: MIC by Resazurin Microtiter Assay (REMA); format: cell-based, Xanthomonas citri subsp. citri; settings: Xanthomonas citri, 12 h, REMA, NYG medium, 29 °C
Experimental: The antibacterial potential of carboxylic acids and their esters were compared to copper oxychloride (a commercial active often used to combat citrus canker). Minimal inhibitory concentration (MIC) values were determined by REMA assay, which measures cellular respiratory activity.
as §4

[5] = test system: VERO (monkey kidney epithelial cell line); assay: Cytotoxicity MTT assay, VERO; format: cell-based
Experimental: as §1, §2, §3

[6] = Partition coefficient log Po/w by HPLC (OECD 117); format: physicochemical; settings: HPLC method, OECD 117, methanol:water 3:1
Experimental: The analyses were performed with the use of an isocratic flow in methanol: water (3:1) at 1.0 mL min^−1. We injected 20.0 μL and analyses were performed at 254 nm. We used as reference compounds thiourea, phenol, acetophenone, benzoic acid, benzene, toluene, biphenyl, fluoranthene and triphenylamine in order to construct the curve log K × log Po/w. The lipophilicity of alkyl dihydroxybenzoates was determined from their retention times and interpolation in linearity curve log K × log Po/w. We performed the analyses in duplicate.

[7] = Homo sapiens, MRC5, 24 h, read-out: IC50 MRC-5, MTT, 24 h treatment
[8] = MTT, 24 h treatment, read-out: IC50 MRC-5
[9] = Homo sapiens, ACHN, 24 h, read-out: IC50 ACHN, MTT, 24 h treatment
[10] = MTT, 24 h treatment, read-out: IC50 ACHN
[11] = Primates, Vero, 24 h, MTT, 24 h treatment, read-out: IC50 VERO

Structure (SMILES) | IC50 [1, 7] [µM] | IC50 [1, 8] [µM] | IC50 [2, 9] [µM] | IC50 [2, 10] [µM] | MBC [3] [µg/mL] | MIC ([4]; read-out: MIC in μM) [µM] | IC50 ([5]; MTT, 24 h treatment, read-out: IC50 VERO) [µM] | IC50 ([5]; Primates, Vero, 24 h, read-out: IC50 VERO, MTT, 24 h treatment) [µM] | chromatographic logP [6] | IC50 [5, 11] [µM] | MIC ([4]; read-out: MIC) [µg/mL]
CCCCCCCOC(=O)c1ccc(O)cc1O [Compound 4] | > 100 | 127 ± 4.59 | > 100 | 153 ± 7.07 | 25 | 52 | 111 ± 8.34 | > 100 | 5.1 |  | 
CCCCCCCOC(=O)c1cc(O)ccc1O [Compound 16] | > 100 | 145 ± 6.29 | > 100 | 140 ± 7.56 | 25 | 80 |  |  | 5 | 93.5 ± 1.93 | 
CCCCCCCOC(=O)c1ccc(O)c(O)c1 [Compound 28] | > 100 | 129 ± 2.12 | > 100 | 114 ± 9.97 | 50 | 88 |  |  | 4.3 | 92.3 ± 9.34 | 22.2

Source: article PMC6213047, “Design of Antibacterial Agents: Alkyl Dihydroxybenzoates against Xanthomonas citri subsp. citri” (International Journal of Molecular Sciences, 2018)
